pEC50: −log10 of the molar value.
Test system: THP-1 viability, CellTiter-Glo luminescence, 72 h
Assay: human monocytic cell viability reduction – S. typhimurium screen hits, cytotoxicity control for Salmonella PhoP regulon inhibitors, dose response (AID 2253)

In the case of `O=C(N/N=C/c1cc(O)ccc1Br)c1cccnc1`, the pEC50 was 5.65.

With `Cc1ccc(NC(=S)NC(NC(=O)c2ccco2)C(Cl)(Cl)Cl)cc1` (centres undefined) the pEC50 was 4.71.

In the case of `COC12C(COC(N)=O)C3=C(C(=O)C(C)=C(N)C3=O)N1CC1C2N1C` (centres undefined), the pEC50 was 5.04.

Compound `Cc1cc(SCC(=O)N/N=C/c2ccc(O)c(O)c2O)c(C)cc1Br` has a pEC50 of 5.56.

Compound `Cc1cc(O)ccc1Nc1nc2ccccc2nc1Nc1ccc(O)cc1C` has a pEC50 of 4.61.

Compound `CC(NCc1ccc(Cl)c(Cl)c1)C(O)c1ccccc1` (centres undefined) has a pEC50 of 4.40.

Work on `O=C(N/N=C/C1C(c2ccccc2)C1(Cl)Cl)c1cccc(Cl)c1` (centres undefined) yielded a pEC50 of 4.36.

`Clc1ccc(-c2csc3ncnc(N4CCc5ccccc5C4)c23)cc1` showed a pEC50 of 4.36.

For `O=C(N/N=C/c1c[nH]c2ccccc12)c1cc(-c2ccc3ccccc3c2)n[nH]1`, the pEC50 was 5.52.

`C[C@H]1c2cccc(O)c2C(O)=C2C(=O)C3(O)C(O)=C(C(N)=O)C(=O)[C@@H](N(C)C)[C@@H]3[C@@H](O)[C@@H]21` (some centres undefined) showed a pEC50 of 4.46.

In the case of `Cc1ccc(C(c2cc(Cl)c3cccnc3c2O)N2CCN(C)CC2)cc1` (centres undefined), the pEC50 was 5.72.

`CC(CO)(CO)NCc1ccc(-c2ccccc2)cc1` gave a pEC50 of 4.82.

Work on `Nc1nonc1-n1nnc(C(=O)N/N=C/c2ccc(Br)cc2)c1CSC1=NCCS1` yielded a pEC50 of 4.63.

Compound `O=C(N/N=C/c1cccc([N+](=O)[O-])c1O)c1cccs1` has a pEC50 of 4.87.

For `C/C(CC(=O)Nc1ccc(Cl)c(C(F)(F)F)c1)=N\NC(=O)c1cc2ccccc2cc1O`, the pEC50 was 5.09.

For `Cc1ccc(C(=O)N/N=C/c2ccc([N+](=O)[O-])s2)cc1`, the pEC50 was 4.91.

In the case of `O=C(Nc1ccc(Cl)c(Cl)c1)Nc1ccccc1O`, the pEC50 was 4.68.

For `CCCCCNCC(=O)Nc1cccc(C(=O)Nc2cccc(C(F)(F)F)c2)c1`, the pEC50 was 4.91.

`COc1ccc(OC)c(C2=Nn3c(nnc3-c3cc(OC)c(OC)c(OC)c3)SC2)c1` gave a pEC50 of 4.65.

For `O=c1c(Br)c(Br)cnn1-c1ccccc1`, the pEC50 was 5.90.

Work on `CCCC(=O)NC(c1ccccc1)c1ccc2cccnc2c1O` (centres undefined) yielded a pEC50 of 6.23.

Compound `CCOc1ccccc1NS(=O)(=O)c1ccc(Br)s1` has a pEC50 of 4.39.

In the case of `O=C(Oc1c(CN2CCOCC2)cc(Cl)c2cccnc12)c1ccc(F)cc1`, the pEC50 was 5.15.

Work on `COc1ccc(C(C[N+](=O)[O-])C2(c3ccc(OC)c(OC)c3)C(=O)c3ccccc3C2=O)cc1` (centres undefined) yielded a pEC50 of 4.90.

For `COc1cccc(-c2nnc3sc(-c4ccc(C)cc4)nn23)c1`, the pEC50 was 4.35.

`Clc1ccc(CN2CCC(c3nc4ccc(Cl)cc4[nH]3)CC2)cc1` was tested, and the pEC50 was 4.53.

`COc1ccccc1Nc1nc(NCc2ccco2)c2ccccc2n1` was tested, and the pEC50 was 4.79.

`O=C(c1ccccc1)c1c2c(cc3sc4ccccc4[n+]13)-c1cccc3cccc-2c13` showed a pEC50 of 5.89.

Compound `O=C(N/N=C/c1ccc([N+](=O)[O-])o1)c1ccc(O)cc1` has a pEC50 of 4.92.

In the case of `Cc1cccc(Nc2nc(NCc3ccco3)c3ccccc3n2)c1`, the pEC50 was 5.28.

`OCCCNc1nc(-c2ccc(Cl)cc2)nnc1-c1ccc(Br)cc1` showed a pEC50 of 4.70.

`O=C(NNc1nc(-c2ccccc2)cs1)c1ccccc1` was tested, and the pEC50 was 4.58.

With `Cc1cc2nc3ccc(=[N+](C)C)cc-3sc2cc1N` the pEC50 was 6.00.

`O=C(N/N=C/C1CC=CCC1)c1ccc(Cl)cc1O` (centres undefined) was tested, and the pEC50 was 4.58.

For `CCCCCCCCCn1c2c(c(=N)c3c1CCC3)CCCC2`, the pEC50 was 6.43.

For `O=c1c2c(-c3ccccc3)csc2nc2c3ccccc3c(NCCN3CCOCC3)nn12`, the pEC50 was 5.51.

`O=C(CN1CCCc2ccccc21)N/N=C/c1c(O)ccc2ccccc12` gave a pEC50 of 5.51.

For `CO[C@H]1C=CO[C@@]2(C)Oc3c(C)c(O)c4c(O)c(c(C=NN5CCN(C)CC5)c(O)c4c3C2=O)NC(=O)C(C)=CC=C[C@H](C)[C@H](O)[C@@H](C)[C@@H](O)[C@@H](C)[C@H](OC(C)=O)[C@@H]1C`, the pEC50 was 4.48.

`C=CCN(C(=O)c1cccc(S(=O)(=O)N2CCN(C)CC2)c1)c1nc(-c2ccccc2)cs1` gave a pEC50 of 4.31.

`CCCCC1(CCCC)C(=O)NC(=Nc2cccc(C)c2)NC1=O` was tested, and the pEC50 was 4.41.

For `N/C(=N\OC(=O)N1c2ccccc2Sc2ccccc21)c1ccccc1`, the pEC50 was 4.60.

`O=c1[nH][nH]c(-c2ccccc2O)c1C(C[N+](=O)[O-])c1cccc(Cl)c1` (centres undefined) showed a pEC50 of 4.48.

With `Oc1ccccc1CN1CCCN(Cc2ccccc2O)C1` the pEC50 was 4.62.

`CCCCCCCCCCCCCCCCn1cc[n+](CC(C)=O)c1` gave a pEC50 of 6.10.

For `CC(C)(C)c1ccc(C(=O)NC(=S)NCc2cccnc2)cc1`, the pEC50 was 4.33.

For `Oc1cccc(/C=N/NC(=S)Nc2cccnc2)c1O`, the pEC50 was 5.39.

`COc1ccc(C)cc1C(=O)CCC(=O)Nc1ccccc1N1CCOCC1` showed a pEC50 of 5.08.

`c1ccc2c(c1)ncn2CCCCOc1ccc2c(c1)CCC2` was tested, and the pEC50 was 4.82.

`COc1ccc(CCNC(=S)Nc2cccc3ccccc23)cc1` was tested, and the pEC50 was 4.50.

In the case of `O=[N+]([O-])/C=C/c1cc2ccccc2[nH]1`, the pEC50 was 4.50.

For `COC(=O)c1ccc(Nc2cc(C)nc3ccccc23)cc1`, the pEC50 was 5.20.

Compound `Cc1cc(NC(c2cccnc2)c2ccc3cccnc3c2O)no1` (centres undefined) has a pEC50 of 5.75.

`CCn1c2ccccc2c2cc(/C=N/NC(=O)c3ccccc3)ccc21` showed a pEC50 of 5.39.

`Cc1ccccc1OCCSCc1nc2ccccc2[nH]1` gave a pEC50 of 4.52.

`O=C(Nc1ccc(O)cc1)c1cc2n(n1)C(C(F)(F)F)CC(c1ccco1)N2` (centres undefined) was tested, and the pEC50 was 4.92.

For `CCCOc1ccc(Br)cc1CSC(=N)N`, the pEC50 was 5.27.

Compound `CCNC(=S)NNC(=O)c1ccccn1` has a pEC50 of 4.59.

`Cc1ccc2c(c1)[nH]c1c(N3CCN(Cc4ccccc4)CC3)ncnc12` gave a pEC50 of 4.72.

`Cc1cccc(NC(=S)NC(NC(=O)c2ccco2)C(Cl)(Cl)Cl)c1` (centres undefined) gave a pEC50 of 4.66.

Compound `Cc1ccnc(NC(c2cccnc2)c2ccc3cccnc3c2O)c1` (centres undefined) has a pEC50 of 4.92.

For `Oc1c(C(Nc2cccc(C(F)(F)F)c2)c2cccnc2)ccc2cccnc12` (centres undefined), the pEC50 was 5.12.

With `CN(Cc1ccccc1)CC(O)COc1ccc(CNCc2ccc(Cl)s2)cc1` (centres undefined) the pEC50 was 4.48.

Compound `CCN(CC)c1ccc(/C=N/NC(=S)NCc2ccccc2)c(O)c1` has a pEC50 of 5.12.

Compound `CN(CCO)c1cc(Sc2nc3ccccc3s2)c2nonc2c1[N+](=O)[O-]` has a pEC50 of 4.80.

With `NC1=NC2(CCCCC2)N=C(Nc2ccc(Br)cc2)N1` the pEC50 was 5.55.

For `C/C(=N/Nc1nc(-c2ccccc2)cc(-c2ccc(F)cc2)n1)c1cccc(N)c1`, the pEC50 was 4.74.

In the case of `C/C(=C\C(=O)c1cccnc1)Nc1ccc(O)cc1`, the pEC50 was 4.32.

`Oc1ccccc1NCC(O)Cn1ccc2ccccc21` (centres undefined) was tested, and the pEC50 was 4.55.

`O=C(/C=C/c1ccccc1Cl)c1ccccc(=O)c1O` showed a pEC50 of 4.90.

`O=C(NNc1c2ccccc2nc2ccccc12)c1cccc(O)c1` showed a pEC50 of 4.63.

In the case of `O=[N+]([O-])c1cc(Cl)c2cccnc2c1O`, the pEC50 was 4.56.

In the case of `O=C(Cc1n[nH]c(=O)c2ccccc12)OCC(=O)c1ccc2c(c1)OCCO2`, the pEC50 was 5.87.

For `Cc1cc(N/N=C/c2cccc(Cl)c2)nc(NCc2ccccc2)n1`, the pEC50 was 4.63.

`Cc1cccc(C)c1NC(=O)CCCSc1nnc(-c2ccc(Cl)cc2)n1-c1ccccc1` gave a pEC50 of 4.56.

For `N=c1n(Cc2ccc(Cl)cc2)c2ccccc2n1CC(O)c1ccco1` (centres undefined), the pEC50 was 4.93.

In the case of `CCOc1ccc2c(c1)nc(SCC(=O)c1ccc(Br)s1)n2C`, the pEC50 was 4.33.

`CCOC(=O)Cn1nnnc1C(C(C)C)N(Cc1cccs1)Cc1cc2cc(C)ccc2[nH]c1=O` (centres undefined) gave a pEC50 of 4.98.

`CCOC(=O)N1CCN(C(c2cccnc2)c2ccc3cccnc3c2O)CC1` (centres undefined) was tested, and the pEC50 was 5.03.

With `C[C@H]1c2cccc(O)c2C(O)=C2C(=O)[C@]3(O)C(O)=C(C(N)=O)C(=O)[C@@H](N(C)C)C3[C@@H](O)C21` (some centres undefined) the pEC50 was 4.51.

With `COC(=O)c1c(NC(=O)c2ccc([N+](=O)[O-])o2)sc2c1CCN(C(C)C)C2` the pEC50 was 5.92.

`Cc1ccc2[nH]c3c(NCc4ccco4)ncnc3c2c1` gave a pEC50 of 4.46.

`CC(C)[C@@H]1CC[C@@H](C)C[C@H]1OC(=O)C[n+]1cc(-c2ccc(Cl)cc2)n2c1CCCCC2` showed a pEC50 of 5.64.

Work on `Cc1cc(/C=N/n2c(COc3ccccc3)nc3ccccc3c2=O)c(O)c([N+](=O)[O-])c1` yielded a pEC50 of 5.33.

`CCOC(=O)C[n+]1c(C)sc2ccc(OC)cc21` showed a pEC50 of 4.59.

Compound `Cc1ccc(/C=C2\SC(=S)N(Cc3ccccc3)C2=O)o1` has a pEC50 of 4.61.

In the case of `O=C1C=C(N2CCOCC2)c2ccccc2C1=O`, the pEC50 was 5.16.

`N#CC1=C(N)Oc2c(O)cc3ccccc3c2C1c1ccsc1` (centres undefined) was tested, and the pEC50 was 4.67.

With `CCN(CC)S(=O)(=O)c1cccc(C(=O)N/N=C/c2ccc(O)c(O)c2O)c1` the pEC50 was 5.18.

Compound `S=C(NN=C1C2CC3CC(C2)CC1C3)Nc1ccccc1` has a pEC50 of 4.52.

For `Oc1ccc(/C=N/Nc2ncc(Br)cn2)c(O)c1`, the pEC50 was 5.51.

`CN(C)CC(C(=O)c1ccccc1)c1ccccc1` (centres undefined) showed a pEC50 of 5.31.

Compound `COc1cc(/C=C/[N+](=O)[O-])ccc1O` has a pEC50 of 4.90.

`Oc1c(C(Nc2nc3ccccc3s2)c2ccco2)ccc2cccnc12` (centres undefined) gave a pEC50 of 6.19.

For `COc1ccc(C(=O)Oc2c(CN3CCOCC3)cc(Cl)c3cccnc23)cc1`, the pEC50 was 5.18.

For `CN(C)c1ccc([C@@H]2[C@@H]([N+](=O)[O-])[C@H]3C=Cc4ccccc4N3[C@H]2C(=O)c2ccc(Cl)cc2)cc1`, the pEC50 was 4.69.

Work on `N#C/C(=C\c1c(Cl)cccc1Cl)c1nc2ccccc2[nH]1` yielded a pEC50 of 4.55.

`CC(=O)Nc1cc(N=Cc2ccc(O)cc2O)c(Cl)cc1Cl` showed a pEC50 of 4.34.

`COc1ccc2c(c1)[nH]c1c(N3CCN(Cc4ccc5c(c4)OCO5)CC3)ncnc12` was tested, and the pEC50 was 5.16.

Compound `Clc1ccc(Nc2ccc(NCc3ccccc3)nn2)cc1` has a pEC50 of 4.67.

For `CC(C)NCCCOc1ccc(Cl)cc1Br`, the pEC50 was 4.35.

Work on `COc1ccc(C(=O)N2CCc3cc(OC)c(OC)cc3C2)cc1OC` yielded a pEC50 of 4.44.

`O=S(=O)(Nc1ccc2ccccc2c1)c1ccccc1` was tested, and the pEC50 was 4.33.

With `CN1/C(=C\C=N\NC(=O)c2ccccc2Br)C(C)(C)c2ccccc21` the pEC50 was 4.49.

Compound `C#CCOCCOCCOCCNc1nc(N2CCN(C(=O)CCCCCCCCCCNC(=O)[C@H]([C@@H](C)CC)n3cc(CCCCN=C(N)N)nn3)CC2)nc(N2CCN(C(=O)CCCCCCCCCCNC(=O)[C@H]([C@@H](C)CC)n3cc(CCCCN=C(N)N)nn3)CC2)n1` has a pEC50 of 5.36.

With `O=C(N/N=C/c1cc([N+](=O)[O-])ccc1O)C1CC1` the pEC50 was 4.58.

`CCc1ccc(Nc2nc(N)nc(CSc3nc4ccccc4s3)n2)cc1` was tested, and the pEC50 was 4.47.

`NC1=NC(=Nc2ccc(Cl)cc2)c2ccccc21` showed a pEC50 of 4.65.

In the case of `O=[N+]([O-])c1cc(F)c2cccnc2c1O`, the pEC50 was 4.52.

With `Nc1nc2ccccc2n1CCOc1ccccc1Cl` the pEC50 was 4.89.

`O=C(N/N=C/c1ccc(F)cc1)c1cc(-c2ccco2)nc2ccccc12` gave a pEC50 of 4.42.

For `CCOc1ccc(Nc2nc(N)c3ccccc3n2)cc1`, the pEC50 was 5.15.

Compound `Clc1ccc(OCCn2ccnc2)c2ccccc12` has a pEC50 of 4.36.

Work on `CCCCCCCCCCOC(=O)Cn1c(COc2ccc(C)cc2)[n+](C)c2ccccc21` yielded a pEC50 of 5.47.

In the case of `O=c1ccc2ccc(Oc3ccc([N+](=O)[O-])cc3[N+](=O)[O-])cc2o1`, the pEC50 was 5.10.
